Source: ChEMBL document CHEMBL1201862, “PubChem BioAssay data set” (2004)
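Method: 48-hour compound exposure of cells in 96-well plates, five concentrations, linear interpolation of endpoints. GI50 = concentration required for 50% inhibition of growth.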 The source made the active and inactive calls. No stated cut-off is given here; in the data, active = GI50 up to about 1.1 µM and inactive = higher.

Key:
Experiment in all cases: NCI-60 cell line screen, 48 h
UACC-257 = system: UACC-257
SF-539 = system: SF-539
COLO 205 = system: COLO 205
A498 = system: A498
M19-MEL = system: M19-MEL
OVCAR-5 = system: OVCAR-5
KM12 = system: KM12
SR = system: SR
NCI-H226 = system: NCI-H226
RXF 631 = system: RXF 631
K562 = system: K562
OVCAR-8 = system: OVCAR-8
SF-268 = system: SF-268
NCI-H23 = system: NCI-H23
TK-10 = system: TK-10
OVCAR-3 = system: OVCAR-3
NCI-H522 = system: NCI-H522
CAKI-1 = system: CAKI-1
HCT-15 = system: HCT-15
HL-60 = system: HL-60
M14 = system: M14
Malme-3M = system: Malme-3M
NCI-H460 = system: NCI-H460
HOP-62 = system: HOP-62
SN12C = system: SN12C
SF-295 = system: SF-295
DMS-273 = system: DMS-273
A549 = system: A549
HCT-116 = system: HCT-116
EKVX = system: EKVX
LOX IMVI = system: LOX IMVI
MOLT-4 = system: MOLT-4
LXFL 529 = system: LXFL 529
ACHN = system: ACHN
DMS-114 = system: DMS-114
UACC-62 = system: UACC-62
SK-MEL-5 = system: SK-MEL-5
SNB-19 = system: SNB-19
SK-MEL-28 = system: SK-MEL-28
HCC 2998 = system: HCC 2998
KM-20L2 = system: KM-20L2
RXF 393 = system: RXF 393
IGROV-1 = system: IGROV-1
U-251 = system: U-251
SK-MEL-2 = system: SK-MEL-2
HOP-92 = system: HOP-92
DLD-1 = system: DLD-1
RPMI-8226 = system: RPMI-8226
786-0 = system: 786-0
HT-29 = system: HT-29
SNB-78 = system: SNB-78
OVCAR-4 = system: OVCAR-4
UO-31 = system: UO-31
SNB-75 = system: SNB-75
HOP-18 = system: HOP-18
CCRF-CEM = system: CCRF-CEM
SK-OV-3 = system: SK-OV-3
SW-620 = system: SW-620
XF498 = system: XF498

## COc1ccc(NC(=O)C(=O)NO)c(OC)c1
UACC-257
  GI50: 22.2 µM (inactive)
SF-539
  GI50: 20.9 µM (inactive)
COLO 205
  GI50: 21 µM (inactive)
A498
  GI50: 21.5 µM (inactive)
M19-MEL
  GI50: 21.9 µM (inactive)
OVCAR-5
  GI50: 19.5 µM (inactive)
KM12
  GI50: 19.8 µM (inactive)
SR
  GI50: 0.239 µM (active)
NCI-H226
  GI50: 22.3 µM (inactive)
RXF 631
  GI50: 18.6 µM (inactive)
K562
  GI50: 19.8 µM (inactive)
OVCAR-8
  GI50: 15 µM (inactive)
SF-268
  GI50: 16.9 µM (inactive)
NCI-H23
  GI50: 18.6 µM (inactive)
TK-10
  GI50: 22.4 µM (inactive)
OVCAR-3
  GI50: 16.6 µM (inactive)
NCI-H522
  GI50: 5.92 µM (inactive)
CAKI-1
  GI50: 13.8 µM (inactive)
HCT-15
  GI50: 16.3 µM
HL-60
  GI50: 17.1 µM (inactive)
M14
  GI50: 16.3 µM (inactive)
Malme-3M
  GI50: 23.8 µM (inactive)
NCI-H460
  GI50: 16 µM (inactive)
HOP-62
  GI50: 19.9 µM (inactive)
SN12C
  GI50: 20 µM (inactive)
SF-295
  GI50: 14 µM (inactive)
DMS-273
  GI50: 16.6 µM (inactive)
A549
  GI50: 19.6 µM (inactive)
HCT-116
  GI50: 18.5 µM (inactive)
EKVX
  GI50: 14.9 µM (inactive)
LOX IMVI
  GI50: 14.2 µM (inactive)
MOLT-4
  GI50: 11.9 µM (inactive)
LXFL 529
  GI50: 16.7 µM (inactive)
ACHN
  GI50: 15.9 µM (inactive)
DMS-114
  GI50: 15.5 µM (inactive)
UACC-62
  GI50: 14.8 µM (inactive)
SK-MEL-5
  GI50: 18.5 µM (inactive)
SNB-19
  GI50: 14.9 µM (inactive)
SK-MEL-28
  GI50: 17.5 µM (inactive)
HCC 2998
  GI50: 21.4 µM (inactive)
KM-20L2
  GI50: 19.1 µM (inactive)
RXF 393
  GI50: 15.6 µM (inactive)
IGROV-1
  GI50: 15.4 µM (inactive)
U-251
  GI50: 16.7 µM (inactive)
SK-MEL-2
  GI50: 16.1 µM (inactive)
HOP-92
  GI50: 20.6 µM (inactive)
DLD-1
  GI50: 21.5 µM (inactive)
RPMI-8226
  GI50: 15.1 µM (inactive)
786-0
  GI50: 16 µM (inactive)
HT-29
  GI50: 20.7 µM (inactive)
SNB-78
  GI50: 19.8 µM (inactive)
OVCAR-4
  GI50: 17.7 µM (inactive)
UO-31
  GI50: 16.2 µM (inactive)
SNB-75
  GI50: 16.5 µM (inactive)
HOP-18
  GI50: 17.3 µM (inactive)
CCRF-CEM
  GI50: 23 µM (inactive)
SK-OV-3
  GI50: 19.5 µM (inactive)
SW-620
  GI50: 18.7 µM (inactive)

## O=C1OCc2c1cc1ccc(O)c(OC3OC(CO)C(O)C(O)C3O)c1c2-c1ccc2c(c1)OCO2 (configuration not stated)
SF-539
  GI50: > 100 µM (inactive)
COLO 205
  GI50: > 100 µM (inactive)
XF498
  GI50: 62.7 µM (inactive)
A498
  GI50: > 100 µM (inactive)
OVCAR-5
  GI50: > 100 µM (inactive)
RXF 631
  GI50: > 100 µM (inactive)
OVCAR-8
  GI50: 94 µM (inactive)
TK-10
  GI50: > 100 µM (inactive)
CAKI-1
  GI50: 87.3 µM (inactive)
HCT-15
  GI50: 46.2 µM
M14
  GI50: 87.3 µM (inactive)
Malme-3M
  GI50: > 100 µM (inactive)
NCI-H460
  GI50: > 100 µM (inactive)
HOP-62
  GI50: > 100 µM (inactive)
SN12C
  GI50: 89.3 µM (inactive)
SF-295
  GI50: > 100 µM (inactive)
DMS-273
  GI50: 94.6 µM (inactive)
A549
  GI50: > 100 µM (inactive)
EKVX
  GI50: > 100 µM (inactive)
LOX IMVI
  GI50: 86.7 µM (inactive)
LXFL 529
  GI50: 68.1 µM (inactive)
ACHN
  GI50: 72.1 µM (inactive)
DMS-114
  GI50: 47.5 µM (inactive)
UACC-62
  GI50: 76.9 µM (inactive)
SK-MEL-28
  GI50: 67.8 µM (inactive)
KM-20L2
  GI50: > 100 µM (inactive)
RXF 393
  GI50: 59.4 µM (inactive)
IGROV-1
  GI50: > 100 µM (inactive)
U-251
  GI50: > 100 µM (inactive)
786-0
  GI50: > 100 µM (inactive)
HT-29
  GI50: 47.2 µM (inactive)
SNB-78
  GI50: 89.3 µM (inactive)
SK-OV-3
  GI50: > 100 µM (inactive)
SW-620
  GI50: > 100 µM (inactive)

## CC1=Nc2ccccc2C12C(c1ccccc1)C(c1ccccc1)C(=O)N1c3ccccc3CC12 (configuration not stated)
UACC-257
  GI50: > 100 µM (inactive)
SF-539
  GI50: > 100 µM (inactive)
COLO 205
  GI50: > 100 µM (inactive)
XF498
  GI50: 11.9 µM (inactive)
A498
  GI50: > 100 µM (inactive)
OVCAR-5
  GI50: > 100 µM (inactive)
KM12
  GI50: > 100 µM (inactive)
SR
  GI50: > 100 µM (inactive)
NCI-H226
  GI50: > 100 µM (inactive)
RXF 631
  GI50: > 100 µM (inactive)
K562
  GI50: > 100 µM (inactive)
OVCAR-8
  GI50: > 100 µM (inactive)
NCI-H23
  GI50: > 100 µM (inactive)
TK-10
  GI50: > 100 µM (inactive)
OVCAR-3
  GI50: > 100 µM (inactive)
NCI-H522
  GI50: > 100 µM (inactive)
CAKI-1
  GI50: > 100 µM (inactive)
HCT-15
  GI50: > 100 µM
HL-60
  GI50: > 100 µM (inactive)
M14
  GI50: > 100 µM (inactive)
Malme-3M
  GI50: > 100 µM (inactive)
NCI-H460
  GI50: > 100 µM (inactive)
HOP-62
  GI50: > 100 µM (inactive)
SN12C
  GI50: > 100 µM (inactive)
SF-295
  GI50: > 100 µM (inactive)
DMS-273
  GI50: > 100 µM (inactive)
A549
  GI50: > 100 µM (inactive)
HCT-116
  GI50: > 100 µM (inactive)
EKVX
  GI50: > 100 µM (inactive)
LOX IMVI
  GI50: > 100 µM (inactive)
MOLT-4
  GI50: > 100 µM (inactive)
LXFL 529
  GI50: > 100 µM (inactive)
ACHN
  GI50: > 100 µM (inactive)
DMS-114
  GI50: > 100 µM (inactive)
UACC-62
  GI50: > 100 µM (inactive)
SK-MEL-5
  GI50: > 100 µM (inactive)
SNB-19
  GI50: > 100 µM (inactive)
SK-MEL-28
  GI50: > 100 µM (inactive)
HCC 2998
  GI50: > 100 µM (inactive)
KM-20L2
  GI50: > 100 µM (inactive)
RXF 393
  GI50: > 100 µM (inactive)
IGROV-1
  GI50: > 100 µM (inactive)
U-251
  GI50: > 100 µM (inactive)
SK-MEL-2
  GI50: > 100 µM (inactive)
HOP-92
  GI50: > 100 µM (inactive)
DLD-1
  GI50: > 100 µM (inactive)
RPMI-8226
  GI50: > 100 µM (inactive)
786-0
  GI50: > 100 µM (inactive)
HT-29
  GI50: > 100 µM (inactive)
SNB-78
  GI50: > 100 µM (inactive)
OVCAR-4
  GI50: 19.9 µM (inactive)
UO-31
  GI50: > 100 µM (inactive)
SNB-75
  GI50: 73.1 µM (inactive)
SK-OV-3
  GI50: > 100 µM (inactive)
SW-620
  GI50: > 100 µM (inactive)
